According to ChEMBL document CHEMBL3882389, “Phosphatidylinositol 3-Kinase Inhibitors for the Treatment of Lymphoproliferative Malignancies” (2014):
The source made the active and inactive calls. The calls are words filed in the database; no cut-off is given here.

Experiments:
[1] = Toxicity in patient with chronic lymphocytic leukemia and lymphoma assessed as incidence of grade more than equal 3 pruritus at 600 mg, po qd for 21 days co-administered with paclitaxel and carboplatin during phase 1 open label non-randomized trial relative to control; format: organism-based; conditions: human, in vivo, 504 h
[2] = Toxicity in patient with chronic lymphocytic leukemia and lymphoma assessed as incidence of grade more than equal 3 dyspnea at 600 mg, po qd for 21 days co-administered with paclitaxel and carboplatin during phase 1 open label non-randomized trial relative to control; format: organism-based; conditions: human, in vivo, 504 h
[3] = Toxicity in patient with chronic lymphocytic leukemia and lymphoma assessed as incidence of diarrhea at 600 mg, po qd for 21 days during phase 1 open label non-randomized trial relative to control; format: organism-based; conditions: human, in vivo, 504 h
[4] = Toxicity in patient with chronic lymphocytic leukemia and lymphoma assessed as incidence of dyspnea at 600 mg, po qd for 21 days during phase 1 open label non-randomized trial relative to control; format: organism-based; conditions: human, in vivo, 504 h
[5] = Toxicity in patient with chronic lymphocytic leukemia and lymphoma assessed as incidence of grade more than equal 3 neutrophenia at 600 mg, po qd for 21 days co-administered with paclitaxel and carboplatin during phase 1 open label non-randomized trial relative to control; format: organism-based; conditions: human, in vivo, 504 h
[6] = Toxicity in po dosed patient with chronic lymphocytic leukemia and lymphoma assessed as induction of grade 3 rash at 600 mg, po administered once daily for 21 days followed by 7 days rest; format: organism-based; conditions: human, in vivo
[7] = tested on: Homo sapiens; test: In vivo inhibition of PI3K in PBMC of po dosed solid tumor patient administered once daily; format: functional, organism-based
[8] = Toxicity in patient with chronic lymphocytic leukemia and lymphoma assessed as incidence of abdominal pain at 600 mg, po qd for 21 days during phase 1 open label non-randomized trial relative to control; format: organism-based, Abdomen; conditions: human, in vivo, 504 h
[9] = Toxicity in patient with chronic lymphocytic leukemia and lymphoma assessed as incidence of anemia at 600 mg, po qd for 21 days during phase 1 open label non-randomized trial relative to control; format: organism-based; conditions: human, in vivo, 504 h
[10] = Toxicity in patient with chronic lymphocytic leukemia and lymphoma assessed as incidence of grade more than equal 3 pyrexia at 600 mg, po qd for 21 days co-administered with paclitaxel and carboplatin during phase 1 open label non-randomized trial relative to control; format: organism-based; conditions: human, in vivo, 504 h
[11] = Toxicity in patient with chronic lymphocytic leukemia and lymphoma assessed as incidence of rash at 600 mg, po qd for 21 days during phase 1 open label non-randomized trial relative to control; format: organism-based; conditions: human, in vivo, 504 h
[12] = Toxicity in patient with chronic lymphocytic leukemia and lymphoma assessed as incidence of pruritus at 600 mg, po qd for 21 days during phase 1 open label non-randomized trial relative to control; format: organism-based; conditions: human, in vivo, 504 h
[13] = tested on: Homo sapiens; test: In vivo inhibition of PI3K in hair follicle of po dosed solid tumor patient administered once daily; format: functional, organism-based
[14] = Toxicity in patient with chronic lymphocytic leukemia and lymphoma assessed as incidence of hyperglycemia at 600 mg, po qd for 21 days during phase 1 open label non-randomized trial relative to control; format: organism-based; conditions: human, in vivo, 504 h
[15] = Toxicity in patient with chronic lymphocytic leukemia and lymphoma assessed as incidence of grade more than equal 3 anemia at 600 mg, po qd for 21 days during phase 1 open label non-randomized trial relative to control; format: organism-based; conditions: human, in vivo, 504 h
[16] = Toxicity in po dosed patient with chronic lymphocytic leukemia and lymphoma assessed as induction of grade 3 rash at 600 mg, po administered once daily for continuous 21 days; format: organism-based; conditions: human, in vivo, 504 h
[17] = Toxicity in patient with chronic lymphocytic leukemia and lymphoma assessed as incidence of fatigue at 600 mg, po qd for 21 days co-administered with paclitaxel and carboplatin during phase 1 open label non-randomized trial relative to control; format: organism-based; conditions: human, in vivo, 504 h
[18] = Toxicity in patient with chronic lymphocytic leukemia and lymphoma assessed as incidence of dyspnea at 600 mg, po qd for 21 days co-administered with paclitaxel and carboplatin during phase 1 open label non-randomized trial relative to control; format: organism-based; conditions: human, in vivo, 504 h
[19] = tested on: Homo sapiens; test: In vivo inhibition of PI3K in tumor tissue of po dosed solid tumor patient administered once daily; format: functional, organism-based
[20] = Toxicity in patient with chronic lymphocytic leukemia and lymphoma assessed as incidence of grade more than equal 3 anemia at 600 mg, po qd for 21 days co-administered with paclitaxel and carboplatin during phase 1 open label non-randomized trial relative to control; format: organism-based; conditions: human, in vivo, 504 h
[21] = Toxicity in po dosed patient with chronic lymphocytic leukemia and lymphoma assessed as induction of grade 3 hypersensitivity at 600 mg, po administered once daily for 21 days followed by 7 days rest; format: organism-based; conditions: human, in vivo
[22] = Toxicity in po dosed patient with chronic lymphocytic leukemia and lymphoma assessed as induction of grade 3 hypersensitivity at 600 mg, po once daily for continuous 21 daysrest; format: organism-based; conditions: human, in vivo
[23] = Toxicity in patient with chronic lymphocytic leukemia and lymphoma assessed as incidence of rash at 600 mg, po qd for 21 days co-administered with paclitaxel and carboplatin during phase 1 open label non-randomized trial relative to control; format: organism-based; conditions: human, in vivo, 504 h
[24] = Toxicity in patient with chronic lymphocytic leukemia and lymphoma assessed as incidence of diarrhea at 600 mg, po qd for 21 days co-administered with paclitaxel and carboplatin during phase 1 open label non-randomized trial relative to control; format: organism-based; conditions: human, in vivo, 504 h
[25] = Toxicity in patient with chronic lymphocytic leukemia and lymphoma assessed as incidence of hyperglycemia at 600 mg, po qd for 21 days co-administered with paclitaxel and carboplatin during phase 1 open label non-randomized trial relative to control; format: organism-based; conditions: human, in vivo, 504 h
[26] = Toxicity in patient with chronic lymphocytic leukemia and lymphoma assessed as incidence of grade more than equal 3 cough at 600 mg, po qd for 21 days co-administered with paclitaxel and carboplatin during phase 1 open label non-randomized trial relative to control; format: organism-based; conditions: human, in vivo, 504 h
[27] = Toxicity in patient with chronic lymphocytic leukemia and lymphoma assessed as incidence of grade more than equal 3 fatigue at 600 mg, po qd for 21 days during phase 1 open label non-randomized trial relative to control; format: organism-based; conditions: human, in vivo, 504 h
[28] = Toxicity in patient with chronic lymphocytic leukemia and lymphoma assessed as incidence of grade more than equal 3 abdominal pain at 600 mg, po qd for 21 days co-administered with paclitaxel and carboplatin during phase 1 open label non-randomized trial relative to control; format: organism-based, Abdomen; conditions: human, in vivo, 504 h
[29] = tested on: Homo sapiens; test: In vivo inhibition of PI3K in skin of po dosed solid tumor patient administered once daily; format: functional, organism-based
[30] = Toxicity in patient with chronic lymphocytic leukemia and lymphoma assessed as incidence of grade more than equal 3 fatigue at 600 mg, po qd for 21 days co-administered with paclitaxel and carboplatin during phase 1 open label non-randomized trial relative to control; format: organism-based; conditions: human, in vivo, 504 h
[31] = Toxicity in patient with chronic lymphocytic leukemia and lymphoma assessed as incidence of cough at 600 mg, po qd for 21 days co-administered with paclitaxel and carboplatin during phase 1 open label non-randomized trial relative to control; format: organism-based; conditions: human, in vivo, 504 h
[32] = Toxicity in patient with chronic lymphocytic leukemia and lymphoma assessed as incidence of neutrophenia at 600 mg, po qd for 21 days co-administered with paclitaxel and carboplatin during phase 1 open label non-randomized trial relative to control; format: organism-based; conditions: human, in vivo, 504 h
[33] = Toxicity in patient with chronic lymphocytic leukemia and lymphoma assessed as incidence of cough at 600 mg, po qd for 21 days during phase 1 open label non-randomized trial relative to control; format: organism-based; conditions: human, in vivo, 504 h

COc1ccc(Cl)c(Nc2nc3ccccc3nc2NS(=O)(=O)c2cccc(NC(=O)C(C)(C)N)c2)c1 [PILARALISIB]
Activity [1]: 0%
Activity [2]: 0%
Activity [3]: 12%
Activity [4]: 4%
Activity [5]: 4%
Activity [6]: Toxic
inhibition [7]: Active
Activity [8]: 4%
Activity [9]: 4%
Activity [10]: 0%
Activity [11]: 4%
Activity [12]: 4%
inhibition [13]: Active
Activity [14]: 4%
Activity [15]: 3%
Activity [16]: Toxic
Activity [17]: 0%
Activity [18]: 0%
inhibition [19]: Active
Activity [20]: 0%
Activity [21]: Toxic
Activity [22]: Toxic
Activity [23]: 3%
Activity [24]: 7%
Activity [25]: 4%
Activity [26]: 0%
Activity [27]: 0%
Activity [28]: 0%
inhibition [29]: Active
Activity [30]: 0%
Activity [31]: 0%
Activity [32]: 4%
Activity [33]: 6%
